Measured values: patent US8138171B2, “Dioxolane and dioxolanone fused indolobenzadiazepine HCV NS5B inhibitors” (Bristol-Myers Squibb Company, priority 2008, dated 2012)
Like-named read-outs stand apart in the source and are kept apart here.

Legend:
[1] = target: T1, HCV NS5B RdRp genotype 1b (Hepatitis C virus genotype 1b, UniProt P26663); assay: Modified HCV NS5B RdRp enzyme assay (preincubation protocol); assay type: biochemical
T1 construct: The protein was expressed with an 18 amino acid C-terminal truncation to enhance the solubility; made in house; host or cells: E. coli BL21(DE3), pET21a
T1 sequence (P26663 2420-2992): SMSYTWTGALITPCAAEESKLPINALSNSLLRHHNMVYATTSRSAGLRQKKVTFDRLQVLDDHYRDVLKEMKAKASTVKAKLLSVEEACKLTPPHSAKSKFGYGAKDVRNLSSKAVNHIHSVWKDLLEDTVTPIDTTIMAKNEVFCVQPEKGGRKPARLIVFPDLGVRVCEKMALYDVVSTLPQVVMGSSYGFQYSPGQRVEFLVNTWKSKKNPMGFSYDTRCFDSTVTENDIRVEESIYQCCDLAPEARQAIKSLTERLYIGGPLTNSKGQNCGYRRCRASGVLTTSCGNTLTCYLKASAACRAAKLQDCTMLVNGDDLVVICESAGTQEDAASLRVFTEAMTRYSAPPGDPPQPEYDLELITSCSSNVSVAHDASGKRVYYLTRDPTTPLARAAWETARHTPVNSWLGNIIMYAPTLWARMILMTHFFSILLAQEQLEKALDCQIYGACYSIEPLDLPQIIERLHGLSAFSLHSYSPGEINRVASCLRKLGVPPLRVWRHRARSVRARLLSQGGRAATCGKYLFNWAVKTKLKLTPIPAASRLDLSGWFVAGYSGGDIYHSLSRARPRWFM
Experimental: HCV NS5B RdRp cloning, expression, and purification. The cDNA encoding the NS5B protein of HCV, genotype 1b, was cloned into the pET21a expression vector. The protein was expressed with an 18 amino acid C-terminal truncation to enhance the solubility. The E. coli competent cell line BL21(DE3) was used for expression of the protein. Cultures were grown at 37° C. for ˜4 hours until the cultures reached an optical density of 2.0 at 600 nm. The cultures were cooled to 20° C. and induced with 1 mM IPTG. Fresh ampicillin was added to a final concentration of 50 μg/ml and the cells were grown overnight at 20° C.
Cell pellets (3 L) were lysed for purification to yield 15-24 […] of purified NS5B. The lysis buffer consisted of 20 mM Tris-HCl, pH 7.4, 500 mM NaCl, 0.5% triton X-100, 1 mM DTT, 1 mM EDTA, 20% glycerol, 0.5 mg/ml lysozyme, 10 mM MgCl2, 15 ug/ml deoxyribonuclease I, and Complete™ protease inhibitor tablets (Roche). After addition of the lysis buffer, frozen cell pellets were resuspended using a tissue homogenizer. To reduce the viscosity of the sample, aliquots of the lysate were sonicated on ice using a microtip attached to a Branson sonicator. The sonicated lysate was centrifuged at 100,000×g for 1 hr at 4° C. and filtered through a 0.2 μm filter unit (Corning).
The protein was purified using three sequential chromatography steps: Heparin sepharose CL-6B, polyU sepharose 4B, and Hitrap SP sepharose (Pharmacia). The chromatography buffers were identical to the lysis buffer but contained no lysozyme, deoxyribonuclease I, MgCl2 or protease inhibitor and the NaCl concentration of the buffer was adjusted according to the requirements for charging the protein onto the column. Each column was eluted with a NaCl gradient which varied in length from 5-50 column volumes depending on the column type. After the final chromatography step, the resulting purity of the enzyme is >90% based on SDS-PAGE analysis. The enzyme was aliquoted and stored at −80° C.
Standard HCV NS5B RdRp enzyme assay. HCV RdRp genotype 1b assays were run in a final volume of 60 μl in 96 well plates (Costar 3912). The assay buffer is composed of 20 mM Hepes, pH 7.5, 2.5 mM KCl, 2.5 mM MgCl2, 1 mM DTT, 1.6 U RNAse inhibitor (Promega N2515), 0.1 mg/ml BSA (Promega R3961), and 2% glycerol. All compounds were serially diluted (3-fold) in DMSO and diluted further in water such that the final concentration of DMSO in the assay was 2%. HCV RdRp genotype 1b enzyme was used at a final concentration of 28 nM. A polyA template was used at 6 nM, and a biotinylated oligo-dT12 primer was used at 180 nM final concentration. Template was obtained commercially (Amersham 27-4110). Biotinylated primer was prepared by Sigma Genosys. 3H-UTP was used at 0.6 μCi (0.29 μM total UTP). Reactions were initiated by the addition of enzyme, incubated at 30° C. for 60 min, and stopped by adding 25 μl of 50 mM EDTA containing SPA beads (4 μg/μl, Amersham RPNQ 0007). Plates were read on a Packard Top Count NXT after >1 hr incubation at room temperature.
Modified HCV NS5B RdRp enzyme assay. A modified enzyme assay was performed essentially as described for the standard enzyme assay except for the following: The biotinylated oligo dT12 primer was precaptured on streptavidin-coated SPA beads by mixing primer and beads in assay buffer and incubating at room temperature for one hour. Unbound primer was removed after centrifugation. The primer-bound beads were resuspended in 20 mM Hepes buffer, pH 7.5 and used in the assay at final concentrations of 20 nM primer and 0.67 μg/μl beads. Order of addition in the assay: enzyme (14 nM) was added to diluted compound followed by the addition of a mixture of template (0.2 nM), 3H-UTP (0.6 μCi, 0.29 μM), and primer-bound beads, to initiate the reaction; concentrations given are final. Reactions were allowed to proceed for 4 hours at 30° C.
IC50 values for compounds were determined using seven different. […]

HCV replicon cells = assay: HCV replicon FRET assay; assay type: cell-based; conditions: Hepatitis C virus
Description: FRET Assay Preparation. To perform the HCV FRET screening assay, 96-well cell culture plates were used. The FRET peptide (Anaspec, Inc.) (Taliani et al., Anal. Biochem. 1996, 240, 60-67) contains a fluorescence donor, EDANS, near one end of the peptide and an acceptor, DABCYL, near the other end. The fluorescence of the peptide is quenched by […] resonance energy transfer (RET) between the donor and the acceptor, but as the NS3 protease cleaves the peptide the products are released from RET quenching and the fluorescence of the donor becomes apparent. The assay reagent was made as follows: 5× cell Luciferase cell culture lysis reagent from Promega (#E153A) diluted to 1× with dH2O, NaCl added to 150 mM final, the FRET peptide diluted to 20 uM final from a 2 mM stock.
To prepare plates, HCV replicon cells, with or without a Renilla luciferase reporter gene, were trypsinized and placed into each well of a 96-well plate with titrated test compounds added in columns 3 through 12; columns 1 and 2 contained a control compound (HCV protease inhibitor), and the bottom row contained cells without compound. The plates were then placed in a CO2 incubator at 37° C.
Assays. Subsequent to addition of the test compounds described above (FRET Assay Preparation), at various times the plate was removed and Alamar blue solution (Trek Diagnostics, #00-100) was added per well as a measure of cellular toxicity, After reading in a Cytoflour 4000 instrument (PE Biosystems), plates were rinsed with PBS and then used for FRET assay by the addition of 30 ul of the FRET peptide assay reagent described above (FRET Assay Preparation) per well. The plate was then placed into the Cytoflour 4000 instrument which had been set to 340 excite/490 emission, automatic mode for 20 cycles and the plate read in a kinetic mode. Typically, the signal to noise using an endpoint analysis after the reads was at least three-fold. Alternatively, after Alamar blue reading, plates were rinsed with PBS, 50 ul of DMEM (high glucose) without phenol red was added and plates were then used for luciferase assay using the Promega Dual-Glo Luciferase Assay System.
Compound analysis was determined by quantification of the relative HCV replicon inhibition and the relative cytotoxicity values. To calculate cytoxicity values, the average Alamar Blue fluorescence signals from the control wells were set as 100% non-toxic. The individual signals in each of the compound test wells were then divided by the average control signal and multiplied by 100% to determine […]. To calculate the HCV replicon inhibition values, an average background value was obtained from the two wells containing the highest amount of HCV protease inhibitor at the end of the assay period. These numbers were similar to those obtained from naive Huh-7 cells.
The background numbers were then subtracted from the average signal obtained from the control wells and this number was used as 100% activity. The individual signals in each of the compound test wells were then divided by the averaged control values after background subtraction and multiplied by 100% to determine percent activity. EC50 values for a protease inhibitor titration were calculated as the concentration which caused a 50% reduction in FRET or luciferase activity. The two numbers generated for the compound plate, percent cytoxicity and percent activity were used to determine compounds of interest for further analysis.

[2] = HCV NS5B RdRp genotype 1b, preincubation protocol, read-out: IC50
[3] = HCV replicon cells, FRET assay, read-out: EC50

COc1ccc2c(c1)[C@@H]1OC(C)(C)O[C@]1(C(=O)N(C)CCN(C)C)Cn1c-2c(C2CCCCC2)c2ccc(C(=O)NS(=O)(=O)N(C)C)cc21 (racemic) [Example 1, rac-(3aR,14bS)-10-Cyclohexyl-N^3a-(2-(dimethylamino)ethyl)-N^7-((dimethylamino)sulfonyl)-N^3a,2,2-trimethyl-13-(methyloxy)-4H-[1,3]dioxolo[4,5-d]indolo[2,1-a][2]benzazepine-3a,7(14bH)-dicarboxamide]
IC50 [1, 2]: 170 nM | EC50 (HCV replicon cells; [3]): 130 nM

COc1ccc2c(c1)[C@@H]1OC(=O)O[C@]1(C(=O)N1C[C@@H](C)O[C@@H](C)C1)Cn1c-2c(C2CCCCC2)c2ccc(C(=O)NS(=O)(=O)N(C)C)cc21 (racemic) [Example 2, rac-(3aR,14bS)-10-Cyclohexyl-N-((dimethylamino)sulfonyl)-3a4(2R,6S)-2,6-dimethyl-4-morpholinyl)carbonyl)-13-(methyloxy)-2-oxo-3a,14b-dihydro-4H-[1,3]diaxolo[4,5-d]indolo[2,1-a][2]benzazepine-7-carboxamide]
IC50 [1, 2]: 33 nM | EC50 (HCV replicon cells; [3]): 59 nM

COc1ccc2c(c1)[C@@H]1OC(C)(C)O[C@]1(C(=O)N1C[C@@H](C)O[C@@H](C)C1)Cn1c-2c(C2CCCCC2)c2ccc(C(=O)NS(=O)(=O)N(C)C)cc21 (racemic) [Example 3, rac-(3aR,14bS)-10-Cyclohexyl-N-((dimethylamino)sulfonyl)-3a-(((2R,6S)-2,6-dimethyl-4-morpholinyl)carbonyl)-2,2-dimethyl-13-(methyloxy)-3a,14b-dihydro-4H-[1,3]dioxolo[4,5-d]indolo[2,1-a][2]benzazepine-7-carboxamide]
IC50 [1, 2]: 110 nM | EC50 (HCV replicon cells): 170 nM

COc1ccc2c(c1)[C@@H]1OC(=O)O[C@]1(C(=O)N1C3CCC1CN(C)C3)Cn1c-2c(C2CCCCC2)c2ccc(C(=O)NS(=O)(=O)N(C)C)cc21 (racemic) [Example 4, rac-(3aR,14bS)-10-Cyclohexyl-N-((dimethylamino)sulfonyl)-3a-((3-methyl-3,8-diazabicyclo[3.2.1]oct-8-yl)carbonyl)-13-(methyloxy)-2-oxo-3a,14b-dihydro-4H-[1,3]dioxolo[4,5-d]indolo[2,1-a][2]benzazepine-7-carboxamid]
IC50 [1]: 91 nM | EC50 (HCV replicon cells): 100 nM

COc1ccc2c(c1)[C@@H]1OC(C)(C)O[C@]1(C(=O)N1C3CCC1CN(C)C3)Cn1c-2c(C2CCCCC2)c2ccc(C(=O)NS(=O)(=O)N(C)C)cc21 (racemic) [Example 5, rac-(3aR,4bS)-10-Cyclohexyl-N-((dimethylamino)sulfonyl)-2,2-dimethyl-3a-((3-methyl-3,8-diazabicyclo[3.2.1]oct-8-yl)carbonyl)-13-(methyloxy)-3a,14b-dihydro-4H-[1,3]dioxolo[4,5-d]indolo[2,1-a][2]benzazepine-7-carboxamid]
IC50 [1]: 590 nM | EC50 (HCV replicon cells): 140 nM

COc1ccc2c(c1)[C@@H]1OCO[C@]1(C(=O)N1C3CCC1CN(C)C3)Cn1c-2c(C2CCCCC2)c2ccc(C(=O)NS(=O)(=O)N(C)C)cc21 (racemic) [Example 6, rac-(3aR,14bS)-10-Cyclohexyl-N-((dimethylamino)sulfonyl)-3a-((3-methyl-3,8-diazabicyclo[3.2.1]oct-8-yl)carbonyl)-13-(methyloxy)-3a,14b-dihydro-4H-[1,3]dioxolo[4,5-d]indolo[2,1-a][2]benzazepine-7-carboxamid]
IC50 [1]: 430 nM | EC50 (HCV replicon cells): 140 nM
